The record followed here is patent US4894388A, “Glycosidase inhibitors and use thereof” (priority 1988, dated 1990).

A word on the inhibition: it is the drop in the measured response relative to a control, in per cent. A high value points to a response far below the control.

The target in assay [1] is T1, β-D-mannosidase (Homo sapiens, UniProt O00462).
T1 construct: The glycosidase activities in an extract of normal human liver were assayed; from tissue; host or cells: post mortem human liver, 37,000 g supernatant
T1 sequence (O00462 18-879): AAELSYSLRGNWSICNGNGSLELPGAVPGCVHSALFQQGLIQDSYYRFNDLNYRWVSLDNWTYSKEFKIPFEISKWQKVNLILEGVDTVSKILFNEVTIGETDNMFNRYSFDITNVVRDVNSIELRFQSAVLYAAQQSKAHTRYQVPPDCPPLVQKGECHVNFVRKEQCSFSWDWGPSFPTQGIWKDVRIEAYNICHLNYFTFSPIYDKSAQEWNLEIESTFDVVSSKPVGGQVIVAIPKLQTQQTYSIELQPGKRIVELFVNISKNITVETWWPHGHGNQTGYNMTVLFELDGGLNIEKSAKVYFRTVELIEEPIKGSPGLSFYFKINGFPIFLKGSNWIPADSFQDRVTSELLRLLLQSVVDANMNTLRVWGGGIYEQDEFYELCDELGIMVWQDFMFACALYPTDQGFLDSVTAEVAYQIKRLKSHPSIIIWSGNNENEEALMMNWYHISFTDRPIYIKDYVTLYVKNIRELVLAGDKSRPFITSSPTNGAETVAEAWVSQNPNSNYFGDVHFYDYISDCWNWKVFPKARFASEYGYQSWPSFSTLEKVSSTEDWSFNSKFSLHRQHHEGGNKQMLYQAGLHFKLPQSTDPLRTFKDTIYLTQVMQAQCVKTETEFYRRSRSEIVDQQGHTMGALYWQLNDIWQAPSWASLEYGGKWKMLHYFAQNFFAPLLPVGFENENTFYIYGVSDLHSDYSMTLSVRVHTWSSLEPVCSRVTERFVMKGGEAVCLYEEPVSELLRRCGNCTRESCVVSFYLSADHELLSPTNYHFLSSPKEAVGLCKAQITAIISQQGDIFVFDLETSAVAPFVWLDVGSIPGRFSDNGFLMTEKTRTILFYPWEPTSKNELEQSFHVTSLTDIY
Briefly: Inhibition of β-D-mannosidase in human liver extract. To be noted: 1 mM inhibitor; 0.5 mM substrate; optimal pH; mean of 2-4 determinations. In kind it is biochemical. Here is the method:
(§1) Post mortem human liver, which had been stored at -20° C. until required was homogenized in deionized water (50%, w/v) in a Potter-Elvehjem homogenizer and then centrifuged at 37,000 g for 30 min in an MSE 18 centrifuge. The resultant supernatant was used as the source of enzymic activities.
(§2) The glycosidase activities in an extract of normal human liver were assayed by using the appropriate fluorigenic 4-methylumbelliferyl glycoside substrate (Koch-Light, Haverhill, Suffolk, U.K.) with a concentration of 0.5 mM at the optimal pH of each enzyme [Burditt et al., Clin. Chim. Acta 140, 201-209 (1980)]. Human liver acidic (lysomal) and neutral (cystosolic) α-D-mannosidases were assayed similarly at their pH-optima, of 4.0 and 6.5, respectively, after separation by affinity chromatography on concanavalin A-Sepharose® (Pharmacia Ltd, Milton Keynes, Bucks, U.K.) [Phillips et al., Biochem. J. 153, 579-587 (1976)]. The residual intermediate (Golgi) α-mannosidase II activity in extracts of fibroblasts from a patient with the lysosomal storage disease, mannosidosis, was assayed at pH 5.75 using the synthetic substrate (Burditt et al, Ibid.). The specificity of the inhibitors was determined by assaying the glycosidases in the presence and absence of a 1 mM solution of each compound. The nature of the inhibition and the value of Ki were determined using the Dixon graphical procedure.
Enzymic activities were measured in the presence and absence of 1 mM inhibitor. Inhibition (%) was calculated as the fraction of activity lost in the presence of inhibitor. The values are means of two to four independent determinations.

The subject of assay [2] is β-D-glucosidase. Kind of assay: Inhibition of β-D-glucosidase. To be noted: relative to α-D-mannosidase. In kind it is biochemical, human. The procedure: as §1, §2
Assay [3] relates to α-D-mannosidase (multiple forms). Briefly: Inhibition of multiple forms of α-D-mannosidase. In kind it is biochemical. To be noted: human liver. Here is the method:
as §1, §2

Turning to `CN1C[C@@H](O)[C@@H](O)[C@@H]1[C@@H](O)CO` [N-methyl DIA, N-methyl-1,4-dideoxy-1,4-imino-L-allitol], the inhibition at 1000 µM in assay [1] turned out to be 4%.
`OC[C@H](O)[C@@H]1NC[C@@H](O)[C@H]1O` [DIA, 1,4-dideoxy-1,4-imino-L-allitol]: in assay [2], the “inhibition of β-D-glucosidase (in words)” value is “to a lesser extent”. Also, the inhibition at 1000 µM in assay [1] is 14%. Moreover, the “inhibition of multiple forms of α-D-mannosidase (in words)” value in assay [3] is “moderately strong inhibitor”.
On to `OC[C@H](O)[C@H]1[C@H](O)[C@H](O)CN1Cc1ccccc1` [N-benzyl DIA, N-benzyl-1,4-dideoxy-1,4-imino-L-allitol], for which the inhibition at 1000 µM in assay [1] came out at 0%.
